Measurements published in patent US9795570B2, “Modulation of macrophage phenotype by emodin” (University of South Carolina, priority 2016, dated 2017).

Tests used:
4T1 cells = test: Macrophage migration toward conditioned medium of emodin-treated tumor cells; format: cell-based, mouse; details: increasing concentrations of emodin, 24 h treatment
Method: EO771 or 4T1 cells were treated with 0-50 μM emodin for 24 h. The cells were then washed multiple times with PBS, further cultured, and TCM was collected. The TCM was placed in the bottom chamber of transwell inserts, and 2×10^5 macrophages were seeded into the top chamber in SF DMEM. The cells were incubated at 37° C. with 5% CO2 for 4 h. The membranes were then fixed with 4% paraformaldehyde for 10 min. The cells were removed from the top chamber using cotton swabs, and the cells on the bottom chamber were stained with DAPI (1 μg/mL). The inserts were then cut out, mounted onto slides, and imaged under a Nikon Eclipse E-600 fluorescence microscope (Nikon Inc. Melville, N.Y.) at 20× magnification (5 fields/insert). DAPI stained cells were quantified using ImagePro Plus software.

[1] = tested on: mouse peritoneal macrophages; test: Phagocytosis assay (FITC-labeled E. coli bioparticles); format: cell-based
Method: Macrophages were seeded into a 96-well plate (2×10^5 cells/well) and were stimulated with IL4 or LPS+IFNγ for 24 h with or without emodin. Phagocytotic activity was measured using a Vybrant Phagocytosis assay kit (Molecular Probes). The medium was removed and the cells were washed with PBS. The fluorescent BioParticle suspension was added to the cells and incubated up to 6 h. After the indicated time, the BioParticle suspension was removed, any extracellular fluorescence was quenched with trypan blue, and the intracellular fluorescence was detected using a Spectramax M5 microplate reader (Molecular Devices, Sunnyvale, Calif.).

Compound: Cc1cc(O)c2c(c1)C(=O)c1cc(O)cc(O)c1C2=O [emodin]
- macrophage migration toward TCM from emodin-treated tumor cells (4T1 cells): decrease in macrophage migration
- inhibition of bioparticle uptake ([1]; IL4 or LPS/IFNγ stimulated macrophages, emodin 50 μM 24 h): ~2 fold
- phagocytic activity of naïve cells ([1]; emodin alone, 6 h time point): increase phagocytic activity
